Measurements reported in the supplement of paper PMC10307832.

compound: Cc1nc(C(=O)NCC(=O)O)c(O)c2ccc(Oc3ccccc3)cc12 [FG-4592] + C[C@]1(O)C[C@@H](c2nc(-c3ccc4ccc(-c5ccccc5)nc4c3)c3c(N)nccn32)C1 [Linsitinib] (partner 1 µM); assay: relative viability (nuclei count vs DMSO), 5 days (fraction); higher = more cells survive; settings: first compound 0.08 µM
How it was run: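 Relative viability equals treated-well nuclei counts divided by vehicle-well nuclei counts. Counts came from 4× images of lung cancer cell lines grown in 1536-well plates for 5 days after pin-tool dosing on the day after seeding. Dosing used one drug alone or a fixed anchor-drug dose plus five library-drug doses (not always all listed) in √10 steps, and values are medians of duplicate plates.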

Row | Cell Line | relative viability
1 | NCI-H1993 | 0.808
2 | SW 1573 | 0.732
3 | NCI-H838 | 1.1
4 | LCLC-103H | 0.969
5 | NCI-H520 | 0.85
6 | NCI-H2126 | 0.68
7 | EMC-BAC-2 | 0.846
8 | NCI-H2085 | 0.804
9 | Calu-6 | 0.863
10 | HCC-366 | 0.443
11 | NCI-H1666 | 0.781
12 | NCI-H596 | 1.28
13 | LK-2 | 0.434
14 | NCI-H2087 | 0.865
15 | SK-MES-1 | 1.07
16 | H3255 | 0.963
17 | COR-L23 | 0.832
18 | COR-L 105 | 0.897
19 | IA-LM | 0.578
20 | LOU-NH91 | 0.92
21 | HOP-62 | 0.947
22 | HCC-44 | 0.671
23 | A549 | 0.476
24 | LU99A | 0.488
25 | BEN | 0.85
26 | HCC-78 | 0.599
27 | NCI-H1299 | 0.979
28 | NCI-H1563 | 1.27
29 | ABC-1 | 0.92

same assay, conditions: first compound 0.253 µM

Row | Cell Line | relative viability
30 | NCI-H727 | 0.307
31 | EBC-1 | 0.905
32 | NCI-H1703 | 0.55
33 | NCI-H1993 | 0.646
34 | SW 1573 | 0.714
35 | NCI-H838 | 0.941
36 | LCLC-103H | 1.1
37 | NCI-H520 | 0.895
38 | NCI-H2126 | 0.73
39 | EMC-BAC-2 | 0.767
40 | NCI-H2085 | 0.861
41 | Calu-6 | 0.942
42 | HCC-366 | 0.571
43 | NCI-H1666 | 0.884
44 | NCI-H596 | 1.01
45 | LK-2 | 0.615

Row | Cell Line | relative viability
46 | NCI-H2087 | 0.713
47 | SK-MES-1 | 0.895
48 | H3255 | 0.868
49 | COR-L23 | 0.746
50 | COR-L 105 | 0.738
51 | IA-LM | 0.597
52 | LOU-NH91 | 0.83
53 | NCI-H2405 | 0.583
54 | HOP-62 | 1.03
55 | HCC-44 | 0.603
56 | A549 | 0.549
57 | LU99A | 0.565
58 | BEN | 0.748
59 | HCC-78 | 0.476
60 | NCI-H1299 | 0.939
61 | NCI-H1563 | 1.24

same assay, conditions: first compound 0.8 µM

Row | Cell Line | relative viability
62 | NCI-H727 | 0.3
63 | EBC-1 | 0.824
64 | NCI-H1703 | 0.679
65 | NCI-H1993 | 0.713
66 | SW 1573 | 0.893
67 | NCI-H838 | 1.01
68 | LCLC-103H | 0.89
69 | NCI-H520 | 1.04
70 | NCI-H2126 | 0.593
71 | EMC-BAC-2 | 0.767
72 | NCI-H2085 | 0.758
73 | Calu-6 | 0.941
74 | HCC-366 | 0.551
75 | NCI-H1666 | 0.769
76 | LK-2 | 0.383
77 | NCI-H2087 | 1.13

Row | Cell Line | relative viability
78 | SK-MES-1 | 1.06
79 | H3255 | 0.896
80 | COR-L23 | 0.915
81 | COR-L 105 | 1.12
82 | IA-LM | 0.565
83 | LOU-NH91 | 0.755
84 | NCI-H2405 | 0.884
85 | HOP-62 | 0.921
86 | HCC-44 | 0.569
87 | LU99A | 0.46
88 | BEN | 0.692
89 | HCC-78 | 0.374
90 | NCI-H1299 | 0.956
91 | NCI-H1563 | 1.19
92 | ABC-1 | 0.722

same assay, conditions: first compound 2.53 µM

Row | Cell Line | relative viability
93 | NCI-H727 | 0.268
94 | EBC-1 | 0.862
95 | NCI-H1703 | 0.755
96 | NCI-H1993 | 0.728
97 | SW 1573 | 0.721
98 | NCI-H838 | 1.04
99 | LCLC-103H | 1.1
100 | NCI-H520 | 0.953
101 | NCI-H2126 | 0.699
102 | EMC-BAC-2 | 0.836
103 | NCI-H2085 | 0.878
104 | Calu-6 | 0.859
105 | HCC-366 | 0.693
106 | NCI-H1666 | 0.831
107 | NCI-H596 | 1.04
108 | LK-2 | 0.662
109 | NCI-H2087 | 0.878

Row | Cell Line | relative viability
110 | SK-MES-1 | 1.07
111 | H3255 | 1.07
112 | COR-L23 | 0.913
113 | COR-L 105 | 1.08
114 | IA-LM | 0.376
115 | LOU-NH91 | 0.938
116 | NCI-H2405 | 0.801
117 | HOP-62 | 1.03
118 | HCC-44 | 0.732
119 | A549 | 0.546
120 | LU99A | 0.483
121 | BEN | 0.934
122 | HCC-78 | 0.494
123 | NCI-H1299 | 0.989
124 | NCI-H1563 | 1.27
125 | ABC-1 | 0.8

same assay, conditions: first compound 8 µM

Row | Cell Line | relative viability
126 | NCI-H727 | 0.271
127 | EBC-1 | 0.825
128 | NCI-H1703 | 0.617
129 | NCI-H1993 | 0.706
130 | SW 1573 | 0.782
131 | NCI-H838 | 0.938
132 | LCLC-103H | 0.854
133 | NCI-H520 | 0.764
134 | NCI-H2126 | 0.655
135 | EMC-BAC-2 | 0.833
136 | NCI-H2085 | 0.815
137 | Calu-6 | 0.993
138 | HCC-366 | 0.517
139 | NCI-H1666 | 0.677
140 | NCI-H596 | 0.983
141 | LK-2 | 0.424
142 | NCI-H2087 | 1.14

Row | Cell Line | relative viability
143 | SK-MES-1 | 0.957
144 | H3255 | 0.959
145 | COR-L23 | 0.912
146 | COR-L 105 | 0.997
147 | IA-LM | 0.476
148 | LOU-NH91 | 0.907
149 | NCI-H2405 | 0.72
150 | HOP-62 | 0.931
151 | HCC-44 | 0.661
152 | A549 | 0.588
153 | LU99A | 0.548
154 | BEN | 0.602
155 | HCC-78 | 0.506
156 | NCI-H1299 | 0.964
157 | NCI-H1563 | 1.22
158 | ABC-1 | 0.844
